Experimental data taken from article PMC6017816, “Sesquiterpene Lactones from Vernonia cinerascens Sch. Bip. and Their in Vitro Antitrypanosomal Activity” (Molecules : A Journal of Synthetic Chemistry and Natural …, 2018).
Read-outs that look alike come from different tables or passages of the source.

Legend:
[1] = in vitro cytotoxicity against mammalian cells (L6); assay type: cell-based, rat
Protocol: (§1) The dichloromethane (CH2Cl2) extract obtained from leaves of V. cinerascens was tested for in vitro antiprotozoal activity against Trypanosoma brucei rhodesiense (Tbr) (STIB 900 strain) trypomastigotes, T. cruzi (Tcr) (Tulahuen C4 strain) amastigotes, Leishmania donovani (Ldon) (MHOM-ET-67/L82 strain) axenic amastigotes, and Plasmodium falciparum (Pf) (NF54 strain) intra-erythrocytic forms. It was also evaluated for in vitro cytotoxicity against mammalian cells, specifically the rat-skeletal myoblast cell line L6. […] Therefore, the CH2Cl2 extract was fractionated by silica gel column chromatography and representative fractions were subjected to bioactivity testing against Tbr (STIB 900 strain) trypomastigotes.
(§2) In vitro bioactivity tests were performed as previously described against Tbr (bloodstream trypomastigotes, STIB 900 strain), Tcr (amastigotes, Tulahuen C4 strain), Ldon (axenic amastigotes, MHOM-ET-67/L82 strain), and Pf (intraerythrocytic forms, NF54 strain), and the cytotoxicity test was conducted against mammalian cells (L6 cell line from rat-skeletal myoblasts) at the Swiss Tropical and Public Health Institute (Swiss TPH, Basel, Switzerland).

[2] = test system: Trypanosoma brucei rhodesiense (Tbr) (STIB 900 strain) trypomastigotes; assay: in vitro activity against Trypanosoma brucei rhodesiense bloodstream trypomastigotes; assay type: cell-based; conditions: for IC50: Trypanosoma brucei, read-out: Tbr IC50; for SI (selectivity index): cytotoxicity L6 IC50 versus Tbr IC50
Protocol: as §1, §2

[3] = test system: Trypanosoma brucei rhodesiense (Tbr) (STIB 900 strain) trypomastigotes; design: method as in PMID 28397756; conditions: isolated from V. lasiopus in previous study; read-out: in vitro antiTbr activity IC50; cited from earlier work
[4] = bloodstream trypomastigotes, STIB 900 strain, means of two independent determinations ± absolute deviation
[5] = L6 cell line from rat-skeletal myoblasts, means of two independent determinations ± absolute deviation, read-out: Cytotoxicity IC50

Row | Compound | IC50 ([1]; rat) | IC50 [2, 4] | SI (selectivity index) [2] | IC50 [1, 5] | IC50 [2] | IC50 [3]
1 | C=C[C@@]12COC(=O)C(=C)[C@@H]1[C@H]1OC(=O)C(=C)[C@@H]1[C@@H](OC(=O)C(=C)CO)C2 [Compound 2, vernodalin] | 5.6 µM | 0.16 ± 0.04 µM | 35 |  |  | 
2 | C=C[C@@]12COC(=O)C(=C)[C@@H]1[C@H]1OC(=O)[C@@H](C)[C@@H]1[C@@H](OC(=O)C(=C)CO)C2 [Compound 3, 11β,13-dihydrovernodalin] | 4.7 ± 0.4 µM | 1.1 ± 0.3 µM | 4.2 |  |  | 
3 | C=C(C)C(=O)OC1CC23OC2CCC(=CC2OC(=O)C(C)C21)COC3O (stereo not drawn) [Compound 4, 11β,13-dihydrovernolide] |  | 17 µM | 0.8 | 13 ± 2 µM |  | 
4 | C=C(C)C(=O)OC1CC23OC2CCC(=CC2OC(=O)C(=C)C21)COC3O (stereo not drawn) [Compound 5, vernolide] |  | 0.5 ± 0.01 µM | 13 | 6.9 µM |  | 
5 | C=C(CO)C(=O)OC1CC23OC2CCC(=CC2OC(=O)C(C)C21)COC3O (stereo not drawn) [Compound 6, 11β,13-dihydrohydroxyvernolide] | 49 ± 1 µM | 15 µM | 3.2 |  |  | 
6 | C=C(CO)C(=O)OC1CC23OC2CCC(=CC2OC(=O)C(=C)C21)COC3O (stereo not drawn) [Compound 7, hydroxyvernolide] | 22 ± 1 µM | 5 µM | 4.3 |  |  | 
7 | C=C(CO)C(=O)O[C@H]1C[C@@]2(CO)O[C@@H]2CC/C(C=O)=C/[C@H]2OC(=O)C(=C)[C@H]12 [Compound 8, vernocinerascolide] | 128 ± 1 µM | 4.8 ± 1.1 µM | 27 |  |  | 
8 | Nc1nc(N)nc(Nc2ccc([As]3SCC(CO)S3)cc2)n1 (stereo not drawn) [melarsoprol, reference compound] |  |  |  |  | 0.003 ± 0.001 µM | 
9 | COc1cc([C@@H]2c3cc4c(cc3[C@H](O)[C@H]3COC(=O)[C@H]23)OCO4)cc(OC)c1OC [podophyllotoxin, reference compound] |  |  |  | 0.007 ± 0.001 µM |  | 
10 | vernodalol [Compound 1] |  |  |  |  |  | 0.26 µM
